# Laboratory results published in article PMC6977516, “An assessment of the interaction for three Chrysanthemum indicum flavonoids and α‐amylase by surface plasmon resonance” (Food Science & Nutrition, 2019).
# Where two headings read alike, the source gives them in different places. Marks after values point to notes of the source that are not given here.
# Tests used:
# [1] = target: T1, α-amylase (Bacillus subtilis, UniProt P00691); test: SPR binding assay of flavonoids to immobilized α-amylase; conditions: for kon: pH 6, read-out: Ka (association rate constant); for koff: pH 6, read-out: Kd (dissociation rate constant) × 10^–3
# T1 construct: purchased Shanghai Ryon Biological Technology Co. Ltd
# Procedure: A commercial BI‐2000 SPR instrument (Biosensing Instrument Inc.) was used for all SPR experiments in this study. The bare Au sensor chip was obtained from Biosensing Instrument Inc. The preparation of Au sensor chip can be referred to our previous published paper (Liu et al., 2014). A flow delivery system incorporated in the BI‐SPR platform pumped samples onto the SPR sensor chip at a flow rate of 10 μl/min. The 0.01 M PBS (pH = 6.0) buffer was used as the running buffer. The BI‐SPR 2000 control software (version 2.2.0.) was used to perform instrument operation and data processing. The Varioskan Flash (Multiskan GO 1510, Thermo Fisher Scientific) was used for the α‐amylase inhibitory activity and DPPH radical assays.
# Binding assay of three flavonoids to α‐amylase was carried out using the SPR sensor. The immobilization of α‐amylase on the chip surface was performed using a standard amine coupling procedure as described previously (Liu, Luo, Li, She, & Gao, 2017). […] After the stable baseline was obtained, different concentrations of flavonoids (50–800 μM) were injected over the chip surface coated with α‐amylase, respectively. The SPR angle was monitored until the baseline stabilization. To enable reuse of the SPR chip, the chip surface could be regenerated using 2 mM NaOH after each measurement. Regeneration parameters were based on the strength of interaction between the analyte and α‐amylase. The chip surface was rinsed by PBS between each step. All the experiments were repeated three times, and kinetic parameters (ka, kd) were deduced by nonlinear fitting of the primary sensorgram data based on the 1:1 Langmuir‐binding model using the BI‐SPR 2000 control software (version 2.2.0.). The model has been widely used in protein–ligand binding analysis and can be calculated through the following formula (Gombau et al., 2019; Islam, Shen, Gurgel, Rojas, & Carbonell, 2014; Lee, Jeong, Jones, & Kim, 2011):(1) dR/dt=kaCRmax-R-kdR where R is the SPR signal at time t, and C is the concentration of the analyte. R max is the maximum analyte binding capacity in SPR signal. ka is the association rate constant and kd is the dissociation rate constant.
# [2] = target: T1, α-amylase; test: SPR: effect of pH and salt on the interaction between flavonoids and α-amylase; format: binding; conditions: flavonoid 200 μM; for optimal CaCl2 concentration for binding with α-amylase: CaCl2 0.04-0.2 M; for optimal MgCl2 concentration for binding with α-amylase: MgCl2 0.02-0.25 M
# Procedure: The effect of pH on the interaction between three flavonoids and α‐amylase was carried out within the pH range (3–9) based on the method described in the above experiment. As is known to all, metal ions play a crucial role in maintaining normal physiological function of the α‐amylase. Moreover, salt is also widely used in food industry. To evaluate whether KCl, MgCl2, and CaCl2 can interfere with the interaction between flavonoids and α‐amylase, a series of 200 μM flavonoids with a various concentrations of KCl (0.02–0.3 M), MgCl2 (0.02–0.25 M), or CaCl2 (0.04–0.2 M) solutions were flowed over the chip surface modified with α‐amylase, respectively.
# [3] = target: T1, α-amylase; test: Inhibition kinetics of α-amylase by Lineweaver-Burk plots; format: biochemical; conditions: for Inhibitory type: Lineweaver-Burk plots, starch 0.25-1.25 mg/ml
# Procedure: To further explore the inhibitory type of three flavonoids on α‐amylase, kinetic analysis was carried out by using Lineweaver–Burk plots. Starch was used as substrate, and the inhibition kinetics of α‐amylase was evaluated by varying four different concentrations (0.25, 0.50, 1.00, and 1.25 mg/ml) of starch in the absence or presence of three flavonoids. The Lineweaver–Burk plots of the three flavonoids can be obtained from the double‐reciprocal plots between 1/[S] (starch concentration) and 1/[V] (reaction rate). Besides, different concentrations of flavonoids (0, 5, and 10 μM) were used and the three Lineweaver––Burk plots for each flavonoid can be obtained. The Ki (inhibition constant) value was obtained from the least‐squares regression line of the slopes of Lineweaver–Burk plots versus the corresponding flavonoid concentrations [I] (Kandra, Gyémánt, Zajácz, & Batta, 2004; Yang et al., 2014). The formula is(3) slope=Km/Vmax1+[I]/Ki Ki = intercept of Equation (3) on x axis (Yang et al., 2014)
# [4] = DPPH radical assay without or with α-amylase; conditions: mean ± RSD (n = 3); for Inhibition (%) of antioxidant activity by binding to α-amylase: (add α-amylase IC50 − not add α-amylase IC50)/not add α-amylase IC50
# Procedure: The DPPH assay was performed to assess effect of α‐amylase on antioxidant activity of three flavonoids as following procedure (Kim et al., 2014). 2 mM DPPH solution was prepared by dissolving 0.0787 g of DPPH in 100 ml of anhydrous ethanol and stored at −20°C. α‐Amylase (300 μM) and three flavonoids (2.5–125 μM) were prepared with PBS (pH = 6.0) and ethanol, respectively. Samples were prepared by mixing flavonoids solution (without or with 10 μl α‐amylase), 100 μl of DPPH, and anhydrous ethanol. Then, samples were incubated for 10 min at room temperature. Absorbance at 517 nm was measured in the spectrophotometer. DPPH radical scavenging activity was calculated as follows (Liu et al., 2017):(4) DPPHradicalscavengingactivity(%)=1-Ai-Aj/Ac×100% in which AC is the absorbance of the DPPH (100 μl DPPH and 100 μl ethanol), Ai is the absorbance of the DPPH and sample (100 μl DPPH, 50 μl flavonoids, and 50 μl ethanol, or 100 μl DPPH, 50 μl flavonoids, 10 μl α‐amylase, and 40 μl ethano1), and Aj is the absorbance of the blank sample (50 μl flavonoids and 150 μl ethanol). All experiments were carried out in triplicate, and the results were expressed as mean ± RSD. IC50 values were obtained based on plotting the percentage of DPPH radical scavenging activity against the flavonoids concentration.
# [5] = with 10 μl α-amylase (300 μM), read-out: Add α-amylase IC50 (DPPH radical scavenging)
# [6] = without α-amylase, read-out: Not add α-amylase IC50 (DPPH radical scavenging)
# T1 sequence (P00691 42-659): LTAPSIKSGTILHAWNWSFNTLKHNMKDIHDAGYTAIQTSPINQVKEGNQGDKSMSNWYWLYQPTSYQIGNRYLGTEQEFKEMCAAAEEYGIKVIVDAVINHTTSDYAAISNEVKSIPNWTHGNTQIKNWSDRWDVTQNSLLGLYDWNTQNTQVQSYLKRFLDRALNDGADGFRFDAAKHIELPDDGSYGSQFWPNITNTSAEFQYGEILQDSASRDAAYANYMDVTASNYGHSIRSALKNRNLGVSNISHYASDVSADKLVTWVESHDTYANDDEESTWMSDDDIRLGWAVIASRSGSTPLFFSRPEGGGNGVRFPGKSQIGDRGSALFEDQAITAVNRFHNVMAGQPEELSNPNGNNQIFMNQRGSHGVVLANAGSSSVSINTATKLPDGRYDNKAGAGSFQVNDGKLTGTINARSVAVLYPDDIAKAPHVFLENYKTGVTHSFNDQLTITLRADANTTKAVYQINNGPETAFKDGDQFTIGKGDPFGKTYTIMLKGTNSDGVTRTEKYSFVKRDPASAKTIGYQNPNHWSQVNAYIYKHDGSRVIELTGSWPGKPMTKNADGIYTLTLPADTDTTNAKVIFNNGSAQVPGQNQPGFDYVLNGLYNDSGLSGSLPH
Compound,Kd [1],kon [1],koff [1],optimal CaCl2 concentration for binding with α-amylase [2],optimal MgCl2 concentration for binding with α-amylase [2],Ki [3],Inhibitory type [3],Inhibition (%) of antioxidant activity by binding to α-amylase [4],"IC50 [4, 5]","IC50 [4, 6]","Kd ([1]; SPR, 1:1 model, pH 6.0, mean ± RSD (n = 3), read-out: KD (equilibrium dissociation constant))","Ki ([3]; slopes of Lineweaver-Burk plots vs flavonoid concentration (0, 5, 10 μM), starch substrate, read-out: Ki)"
COc1ccc(-c2cc(=O)c3c(O)cc(O[C@@H]4O[C@H](CO[C@@H]5O[C@@H](C)[C@H](O)[C@@H](O)[C@H]5O)[C@@H](O)[C@H](O)[C@H]4O)cc3o2)cc1 [Buddleoside],3300 ± 80 µM,2.54 ± 0.2 M⁻¹ s⁻¹,0.0083 ± 0.00015 s⁻¹,0.100 M,0.120 M,43.5 µM,Noncompetitive,21.65 ± 0.04^a %,79.13 ± 0.012 µM,65.05 ± 0.02 µM,,
"O=c1cc(-c2ccc(O)c(O)c2)oc2cc(O)cc(O)c12 [Luteolin, luteolin]",,4.12 ± 0.1 M⁻¹ s⁻¹,0.00808 ± 0.00011 s⁻¹,0.120 M,0.150 M,,Noncompetitive,49.93 ± 0.037^c %,75.2 µM,50.1 µM,1970 ± 120 µM,26.8 µM
"COc1ccc(-c2cc(=O)c3c(O)cc(O)cc3o2)cc1 [Acacetin, acacetin]",2920 ± 200 µM,2.76 ± 6 M⁻¹ s⁻¹,0.008 ± 0.00015 s⁻¹,0.100 M,0.120 M,39.7 µM,Noncompetitive,,77.8 µM,61.3 µM,,
